Measurements as given in ChEMBL document CHEMBL6182937, “Design, Synthesis, and Anti-ischemic Stroke Activity Evaluation of Novel GSNOR Inhibitors” (J Med Chem, 2025).
Activity calls are given as the source filed them. The calls are words filed in the database; no cut-off is given here.

Experiments:
[1] = Inhibition of GSNOR (unknown origin) in presence of NADH incubated for 10 mins by microplate reader analysis; set-up: species or system Homo sapiens
Homo sapiens [2] = organism: Homo sapiens; test: Inhibition of GSNOR (unknown origin) at 1 uM in presence of NADH incubated for 10 mins by microplate reader analysis relative to control
SH-SY5Y [3] = test: Neuroprotective activity against OGD/R-induced human […] cell injury model assessed as increase in cell viability at 10 uM measured for 24 hrs by CCK-8 assay; format: functional, cell-based
Rattus norvegicus [4] = test: Neuroprotective activity against tMCAO- induced brain injury in Sprague-Dawley rat model assessed as reduction in infarct volume at 5 mg/kg, iv measured up to 24 hrs by TTC staining based analysis (reference value: 36.35 +/- 4.05%); format: functional; set-up: scale not given: the % may be the effect or the level left
Rattus norvegicus [5] = test: Neuroprotective activity against tMCAO- induced brain injury in Sprague-Dawley rat model assessed as reduction in infarct volume at 10 mg/kg, iv measured up to 24 hrs by TTC staining based analysis (reference value: 36.35 +/- 4.05%); format: functional; set-up: scale not given: the % may be the effect or the level left
SH-SY5Y [6] = test: Cytotoxicity against human SH-SY5Y cells up to 40 uM incubated for 24 hrs by CCK-8 assay; format: functional, cell-based
SH-SY5Y [7] = test: Neuroprotective activity against OGD/R-induced human […] cell injury model assessed as cell survival measured for 24 hrs by CCK-8 assay; format: functional, cell-based; conditions: dose 1-10 µM
[8] = Permeability of compound across apical to basal side in human Caco-2 cells at 10 uM incubated for 120 mins by LC-MS/MS analysis; format: ADME, cell-based; conditions: caco-2, 2 h
[9] = Stability in rat plasma assessed as half life at 1 uM incubated up to 120 mins by LC-MS/MS analysis; format: ADME, cell-free
[10] = Metabolic stability in rat liver microsomes assessed as half life preincubated for 5 mins followed by NADPH addition and measured up to 60 mins by LC-MS/MS analysis; format: ADME, Microsome; conditions: time < 65 min
[11] = Metabolic stability in rat liver microsomes assessed as intrinsic clearance preincubated for 5 mins followed by NADPH addition and measured up to 60 mins by LC-MS/MS analysis; format: ADME, Microsome; conditions: time < 65 min, read-out: CLH
[12] = Oral bioavailability in male C57BL/6 mouse at 10 mg/kg by LC-MS/MS analysis; format: ADME, organism-based; conditions: in vivo
[13] = Half life in male C57BL/6 mouse at 10 mg/kg, po by LC-MS/MS analysis; format: ADME, organism-based; conditions: in vivo
[14] = Half life in male C57BL/6 mouse at 2 mg/kg, iv by LC-MS/MS analysis; format: ADME, organism-based; conditions: in vivo
[15] = MRT (0 to t) in male C57BL/6 mouse at 10 mg/kg, po by LC-MS/MS analysis; format: ADME, organism-based; conditions: in vivo
[16] = MRT (0 to t) in male C57BL/6 mouse at 2 mg/kg, iv by LC-MS/MS analysis; format: ADME, organism-based; conditions: in vivo
[17] = Half life in Sprague-Dawley rat at 10 mg/kg, iv by LC-MS/MS analysis; format: ADME, organism-based; conditions: in vivo
[18] = Tmax in Sprague-Dawley rat at 10 mg/kg, iv by LC-MS/MS analysis; format: ADME, organism-based; conditions: in vivo
[19] = Cmax in Sprague-Dawley rat at 10 mg/kg, iv by LC-MS/MS analysis; format: ADME, organism-based; conditions: in vivo
[20] = AUC (0 to t) in Sprague-Dawley rat at 10 mg/kg, iv by LC-MS/MS analysis; format: ADME, organism-based; conditions: in vivo
[21] = MRT (0 to t) in Sprague-Dawley rat at 10 mg/kg, iv by LC-MS/MS analysis; format: ADME, organism-based; conditions: in vivo
[22] = Clearance in Sprague-Dawley rat at 10 mg/kg, iv by LC-MS/MS analysis; format: ADME, organism-based; conditions: in vivo
Rattus norvegicus [23] = test: Neuroprotective activity against tMCAO- induced brain injury in Sprague-Dawley rat model assessed as reduction in neurological score at 10 mg/kg, iv measured up to 24 hrs Longa scale analysis; format: functional, organism-based
Rattus norvegicus [24] = test: Neuroprotective activity against tMCAO- induced brain injury in Sprague-Dawley rat model assessed as reduction in neurological score at 5 mg/kg, iv measured up to 24 hrs Longa scale analysis; format: functional, organism-based
Rattus norvegicus [25] = test: Neuroprotective activity against tMCAO- induced brain injury in Sprague-Dawley rat model assessed as […] at 5 mg/kg, iv measured up to 24 hrs; format: functional, organism-based
Rattus norvegicus [26] = test: Neuroprotective activity against tMCAO- induced brain injury in Sprague-Dawley rat model assessed as upregulation of clstn1 level in brain at 5 mg/kg, iv measured after 24 hrs by LC-MS/MS analysis; format: functional, organism-based
Homo sapiens [27] = organism: Homo sapiens; test: Inhibition of GSNOR (unknown origin) at 10 uM relative to control

## Cc1cc(C(N)=O)ccc1-n1c(CCC(=O)O)ccc1-c1ccc(-n2ccnc2)cc1 [N6022]
[1]
  IC50: 84.7 nM
Homo sapiens [2]
  inhibition: 90.3%
SH-SY5Y [3]
  Activity: Active
Rattus norvegicus [4]
  Activity: 25.26%
Rattus norvegicus [5]
  Activity: 25.26%

## O=C(O)c1ccc2cc(-c3ccc(-n4ccnc4)cc3)n(Cc3ccc(N4CCCC4=O)cc3)c2c1
Homo sapiens [2]
  inhibition: 85.5%

## CCOc1cc(-n2c(-c3ccc(-n4ccnc4)cc3)cc3ccc(C(=O)OC)cc32)ccc1C(N)=O
Homo sapiens [2]
  inhibition: 16.4%
SH-SY5Y [6]
  Activity: Active
SH-SY5Y [3]
  Activity: Active
SH-SY5Y [7]
  Activity: Dose-dependent-effect
[8]
  permeability: Permeable
[9]
  half-life at 1 µM: 257 min
[10]
  half-life: 158 min
[11]
  CLint scaled: 15.8 mL/min/kg
[12]
  bioavailability: 11.2%
[13]
  half-life: 76.2 min
[14]
  half-life: 59.4 min
[15]
  MRT last: 1.1 h
[16]
  MRT last: 47.4 min
[17]
  half-life: 36 min
[18]
  Tmax: 4.8 min
[19]
  Cmax: 11600 ng/mL
[20]
  AUC(0-t): 8040 ng·h/mL
[21]
  MRT last: 42.6 min
[22]
  clearance: 20.9 mL/min/kg
Rattus norvegicus [4]
  Activity: 24.39%
Rattus norvegicus [5]
  Activity: 12.74%
Rattus norvegicus [23]
  Activity: Active
Rattus norvegicus [24]
  Activity: Active
Rattus norvegicus [25]
  Activity: Active
Rattus norvegicus [26]
  Activity: Active

## O=C(O)c1ccc2cc(-c3ccc(-n4ccnc4)cc3)n(Cc3ccc(Br)cc3)c2c1
[1]
  IC50: 84.4 nM
Homo sapiens [2]
  inhibition: 81.6%

## O=C(O)c1ccc2cc(-c3ccc(-n4ccnc4)cc3)n(Cc3ccc(SC(F)(F)F)cc3)c2c1
[1]
  IC50: 71.1 nM
Homo sapiens [2]
  inhibition: 89.7%

## N#Cc1ccc(-n2c(-c3ccc(-n4ccnc4)cc3)cc3ccc(C(=O)O)cc32)cc1
Homo sapiens [2]
  inhibition: 22.4%

## O=C(O)c1ccc2cc(-c3ccccc3)n(Cc3ccc(F)cc3)c2c1
Homo sapiens [27]
  inhibition: 32.4%

## NC(=O)c1ccc(Cn2c(-c3ccc(-n4ccnc4)cc3)cc3ccc(C(=O)O)cc32)cc1
[1]
  IC50: 42.2 nM
Homo sapiens [2]
  inhibition: 22.4%

## Cc1cc(C(N)=O)ccc1-n1c(-c2ccc(N3CCN(C)CC3)cc2)cc2ccc(C(=O)O)cc21
Homo sapiens [2]
  inhibition: -0.36%

## O=C(O)c1ccc2cc(-c3ccc(-n4ccnc4)cc3)n(Cc3ccc(Cl)cc3)c2c1
[1]
  IC50: 171 nM
Homo sapiens [2]
  inhibition: 28.1%

## Cc1cc(-n2c(-c3ccc(-n4ccnc4)cc3)cc3ccc(C(=O)O)cc32)ccc1C(N)=O
Homo sapiens [2]
  inhibition: 72.2%

## NC(=O)c1ccc(-n2c(-c3ccc(-n4ccnc4)cc3)cc3ccc(C(=O)O)cc32)cc1C(F)(F)F
Homo sapiens [2]
  inhibition: 50.9%

## CN(C)S(=O)(=O)c1ccc(Cn2c(-c3ccc(-n4ccnc4)cc3)cc3ccc(C(=O)O)cc32)cc1
Homo sapiens [2]
  inhibition: 94.3%

## N[C@@H](CCC(=O)N[C@@H](CSN=O)C(=O)NCC(=O)O)C(=O)O [S-NITROSOGLUTATHIONE]
SH-SY5Y [3]
  Activity: Active
Rattus norvegicus [4]
  Activity: 25.26%

## Cc1cc(C(N)=O)ccc1-n1c(-c2ccc(-c3ccc(=O)[nH]c3)cc2)cc2ccc(C(=O)O)cc21
Homo sapiens [2]
  inhibition: 5.7%

## Cc1cc(C(N)=O)ccc1-n1c(-c2ccc(-n3ccnc3)cc2)cc2ccc(C(=O)O)cc21
[1]
  IC50: 192 nM
Homo sapiens [2]
  inhibition: 81.2%

## CC(C)Oc1cc(-n2c(-c3ccc(-n4ccnc4)cc3)cc3ccc(C(=O)O)cc32)ccc1C(N)=O
[1]
  IC50: 58.3 nM
Homo sapiens [2]
  inhibition: 92.3%
